EC50 data for 16 compounds are collected here from ChEMBL document CHEMBL1156098, “Antitumor agents 269. Non-aromatic ring-A neotanshinlactone analog, TNO, as a new class of potent antitumor agents” (2009).

Format in all cases: functional
The subject of one assay is KB. As to the kind of experiment: Cytotoxicity against human KB cells after 3 days by SRB assay. The conditions noted are these: 72 h, read-out: ED50 (the source's name). Background: The SRB assay estimates cell density from bound dye.
The next assay concerns SK-BR-3. As to the kind of experiment: Cytotoxicity against human SK-BR-3 cells after 3 days by SRB assay. The conditions noted are these: SK-BR-3, 72 h, read-out: ED50 (the source's name).
A short description of assay [1]: Cytotoxicity against human KBVIN cells after 3 days by SRB assay. The conditions noted are these: 72 h, read-out: ED50 (the source's name).
In the next assay the test system is DU-145. The assay is described as follows: Cytotoxicity against human DU145 cells after 3 days by SRB assay. As to conditions: DU-145, 72 h, read-out: ED50 (the source's name).
In the next assay the test system is MDA-MB-231. As to the kind of experiment: Cytotoxicity against human MDA-MB-231 cells after 3 days by SRB assay. As to conditions: MDA-MB-231, 72 h, read-out: ED50 (the source's name).
For the next assay, the system named is A549. As to the kind of experiment: Cytotoxicity against human A549 cells after 3 days by SRB assay. As to conditions: A549, 72 h, read-out: ED50 (the source's name).
The subject of a further assay is ZR-75-1. As to the kind of experiment: Cytotoxicity against human ZR-75-1 cells after 3 days by SRB assay. The conditions noted are these: ZR-75-1, 72 h, read-out: ED50 (the source's name).

For `Cc1cccc2c1ccc1c3occ(C)c3c(=O)oc21`, the EC50 was more than 37 µM in the assay on KB; 0.8 µM with SK-BR-3; more than 37 µM in assay [1]; 58.3 µM with DU-145; 37.9 µM in the assay on MDA-MB-231; 54.2 µM in the assay on A549. Moreover, the EC50 with ZR-75-1 worked out at 1.1 µM.
In the case of `CCc1cccc2c(O)c(-c3occ(C)c3C(=O)O)ccc12`, the EC50 in the assay on KB was 30.7 µM; with SK-BR-3 it was 3.4 µM; in assay [1] it was 23.6 µM; in the assay with DU-145, 29.4 µM; in the assay with MDA-MB-231 it was more than 37 µM; in the assay with A549, 35.8 µM. Further, the EC50 with ZR-75-1 was found to be 1 µM.
Take `Cc1coc2c1c(=O)oc1c3c(ccc12)CCC3`: the EC50 in the assay with KB was more than 37 µM; in the assay with SK-BR-3, more than 60 µM; in assay [1] it was more than 37 µM; in the assay with DU-145, more than 37 µM; with MDA-MB-231 it was more than 37 µM; in the assay with A549, more than 37 µM. Also, in the assay with ZR-75-1, the EC50 was more than 37 µM.
For `Cc1coc2c1c(=O)oc1c3c(ccc12)CCCC3`, the EC50 with KB worked out at 31.5 µM; in the assay with SK-BR-3 it was 5.1 µM; in assay [1], 10.2 µM; in the assay with DU-145, 32.7 µM; in the assay on MDA-MB-231, 38.6 µM; in the assay with A549 it was 10.2 µM. Moreover, in the assay on ZR-75-1, the EC50 was 8.3 µM.
For the compound `CCOc1c(-c2occ(C)c2CO)ccc2c1CCCC2(C)C`, the EC50 in the assay with KB came out at 16.9 µM; in the assay with SK-BR-3 it was 9.9 µM; in assay [1] it was 15.3 µM; in the assay on DU-145, 17.5 µM; in the assay with MDA-MB-231 it was 39.8 µM; with A549 it was 22.9 µM. In addition, in the assay on ZR-75-1, the EC50 is 14.3 µM.
On to `Cc1coc(-c2ccc3c(c2O)CCCC3(C)C)c1C(=O)O`, for which the EC50 in the assay with KB worked out at 4.7 µM; with SK-BR-3, 0.7 µM; in assay [1], 4.7 µM; in the assay with DU-145, 3 µM; with MDA-MB-231, 24.7 µM; in the assay with A549 it was 3.3 µM. The EC50 in the assay with ZR-75-1 was 1.7 µM.
Regarding `Cc1coc(-c2ccc3c(c2O)CCC3)c1C(=O)O`, the EC50 in the assay with KB stood at 31.4 µM; in the assay on SK-BR-3, 30.2 µM; in assay [1], 30.2 µM; with DU-145 it was 38.4 µM; in the assay with MDA-MB-231 it was 44.6 µM; in the assay with A549, 41.5 µM. The EC50 in the assay on ZR-75-1 was 30.2 µM.
In the case of `CCOCc1c(C)coc1-c1ccc2c(c1OC)CCCC2(C)C`, the EC50 in the assay on KB amounted to 21.6 µM; in the assay with SK-BR-3 it was 19.8 µM; in assay [1] it was 16.5 µM; with DU-145, 17.7 µM; in the assay with MDA-MB-231, 42.7 µM; in the assay with A549 it was 22.9 µM. Also, the EC50 with ZR-75-1 is 19.8 µM.
For `COc1c(-c2occ(C)c2C(=O)O)ccc2c1CCCC2(C)C`, the EC50 with KB was 43.3 µM; in the assay on SK-BR-3, 25.5 µM; in assay [1], 47.8 µM; with DU-145, 34.1 µM; in the assay with MDA-MB-231 it was more than 61 µM; with A549, 53.5 µM. In addition, in the assay on ZR-75-1, the EC50 is 41.4 µM.
In the case of `Cc1coc(-c2ccc3c(c2O)CCCC3)c1C(=O)O`, the EC50 with KB was found to be 50 µM; in the assay on SK-BR-3, 32.4 µM; in assay [1], 29.4 µM; in the assay on DU-145, 40.4 µM; in the assay with MDA-MB-231, 73.5 µM; with A549 it was 57 µM. For the same compound, in the assay with ZR-75-1, the EC50 worked out at 21.7 µM.
For the compound `COc1c(-c2occ(C)c2COC(C)=O)ccc2c1CCCC2(C)C`, the EC50 in the assay on KB is 25.4 µM; in the assay on SK-BR-3, 14 µM; in assay [1], 24.9 µM; with DU-145, 16.7 µM; in the assay with MDA-MB-231 it was 55.6 µM; in the assay with A549, 28.7 µM. For the same compound, the EC50 in the assay on ZR-75-1 was 15.5 µM.
For the compound `COc1c(-c2occ(C)c2CO)ccc2c1CCCC2(C)C`, the EC50 was determined as 25.3 µM in the assay on KB; 23.7 µM in the assay with SK-BR-3; 21.7 µM in assay [1]; 21.7 µM in the assay on DU-145; 28.3 µM in the assay with MDA-MB-231; 23.3 µM with A549. The EC50 in the assay with ZR-75-1 turned out to be 15 µM.
For `Cc1coc2c1c(=O)oc1c3c(ccc12)C(C)(C)CCC3`, the EC50 in the assay with KB was 30.5 µM; in the assay on SK-BR-3, 35.8 µM; in assay [1], 34.4 µM; with DU-145 it was 31.9 µM; in the assay with MDA-MB-231, more than 37 µM; in the assay on A549, 28 µM. The EC50 with ZR-75-1 was 32.3 µM.
`COC(=O)c1c(C)coc1-c1ccc2c(c1OC)CCCC2(C)C`: the EC50 in the assay on KB stood at 53.4 µM; with SK-BR-3 it was 27.1 µM; in assay [1], 52.1 µM; in the assay on DU-145, 33.5 µM; with MDA-MB-231, 61 µM; with A549, 61 µM. In the assay on ZR-75-1, the EC50 was 34.5 µM.
Regarding `COCc1c(C)coc1-c1ccc2c(c1OC)CCCC2(C)C`, the EC50 is 11.5 µM in the assay on KB; 18.5 µM with SK-BR-3; 20.1 µM in assay [1]; 17.5 µM in the assay with DU-145; 47.8 µM with MDA-MB-231; 19.4 µM in the assay on A549. Moreover, the EC50 with ZR-75-1 was found to be 14.3 µM.
On to `Cc1coc(-c2ccc3c(c2O)CCCC3(C)C)c1CO`, for which the EC50 with KB was determined as 22 µM; in the assay on SK-BR-3, 21.3 µM; in assay [1], 19.9 µM; in the assay on DU-145, 22.7 µM; in the assay with MDA-MB-231, 39.5 µM; in the assay on A549, 24.5 µM. Besides, the EC50 in the assay with ZR-75-1 is 25.5 µM.
